According to article PMC2014795 (PLoS Pathogens, 2007):
Where no end group is shown, it is not given here.

Target: T1, HLA-DR1 (DRB1*0101) (Homo sapiens, UniProt P01903+P01911, A100R/D57E/F55L/F60I/F76Y/I96L/L162R/M171V/P40L/Q125E/R42F/V115G/Y59C)
T1 construct: the extracellular portion of HLA-DR1 was produced by expression of isolated subunits in Escherichia coli inclusion bodies; made in house
Test: biochemical
Assay type: binding

Compound	IC50
CC[C@H](C)[C@H](N)C(=O)N[C@@H](CC(=O)O)C(=O)N[C@@H](CC(N)=O)C(=O)N[C@@H](CCC(=O)O)C(=O)N[C@@H](CO)C(=O)NCC(=O)N[C@@H](Cc1c[nH]c2ccccc12)C(=O)N[C@@H](CCCCN)C(=O)N[C@H](C(=O)N[C@@H](CC(C)C)C(=O)N[C@H](C(=O)N[C@@H](CO)C(=O)N[C@@H](CCCNC(=N)N)C(=O)N[C@@H](C)C(=O)N[C@H](C(=O)N[C@@H](CC(=O)O)C(=O)N[C@@H](CC(C)C)C(=O)N[C@@H](CO)C(=O)N[C@@H](CO)C(=O)N[C@@H](CCCCN)C(=O)N[C@@H](CCCCN)C(=O)O)[C@@H](C)CC)C(C)C)[C@@H](C)O [Peptide 342]	130 ± 10 nM
CC[C@H](C)[C@H](N)C(=O)N[C@@H](CCCCN)C(=O)N[C@@H](CCCNC(=N)N)C(=O)NCC(=O)N[C@@H](CC(C)C)C(=O)N[C@@H](Cc1ccccc1)C(=O)N[C@@H](Cc1ccccc1)C(=O)N[C@@H](CC(C)C)C(=O)N[C@@H](CCCNC(=N)N)C(=O)N[C@@H](CC(C)C)C(=O)N[C@@H](CO)C(=O)N[C@@H](C)C(=O)N[C@@H](CC(N)=O)C(=O)N[C@@H](CC(C)C)C(=O)N[C@@H](Cc1ccccc1)C(=O)N[C@@H](CCC(=O)O)C(=O)N[C@@H](CO)C(=O)N[C@@H](CCC(N)=O)C(=O)N[C@H](C(=O)N[C@@H](CO)C(=O)N[C@@H](CO)C(=O)O)C(C)C [Peptide 333]	68 ± 14 nM
TTKHPDYAILAARIAVSNLHK [Peptide 307]	28 ± 4 nM
CC[C@H](C)[C@H](NC(=O)CNC(=O)[C@H](CO)NC(=O)[C@H](CCC(N)=O)NC(=O)[C@H](CC(N)=O)NC(=O)[C@@H](NC(=O)[C@H](Cc1ccccc1)NC(=O)[C@@H]1CCCN1C(=O)[C@H](CCC(=O)O)NC(=O)[C@H](Cc1ccccc1)NC(=O)[C@@H](NC(=O)[C@H](CC(C)C)NC(=O)[C@@H](N)CS)C(C)C)C(C)C)C(=O)N[C@@H](CCC(=O)O)C(=O)N[C@H](C(=O)N[C@@H](CC(C)C)C(=O)N[C@@H](CC(C)C)C(=O)N[C@@H](CC(C)C)C(=O)N[C@@H](Cc1ccc(O)cc1)C(=O)N[C@@H](Cc1ccccc1)C(=O)N[C@@H](CCCCN)C(=O)O)[C@@H](C)CC [Peptide 311]	3400 nM
CC[C@H](C)[C@H](N)C(=O)N1CCC[C@H]1C(=O)N[C@@H](CC(C)C)C(=O)N[C@@H](CO)C(=O)N[C@@H](CCC(=O)O)C(=O)N[C@@H](CCSC)C(=O)N[C@H](C(=O)N[C@H](C(=O)N[C@@H](CCCCN)C(=O)N[C@@H](CC(C)C)C(=O)N[C@H](C(=O)N[C@@H](C)C(=O)N[C@H](C(=O)N[C@@H](CS)C(=O)N[C@@H](CCSC)C(=O)N[C@@H](CCCCN)C(=O)N[C@@H](CS)C(=O)N[C@@H](Cc1ccccc1)C(=O)N[C@@H](CCCCN)C(=O)N[C@@H](CCC(=O)O)C(=O)N[C@@H](C)C(=O)O)C(C)C)[C@@H](C)O)C(C)C)C(C)C [Peptide 305]	29 ± 10 nM
CC[C@H](C)[C@H](N)C(=O)N[C@@H](CC(=O)O)C(=O)N[C@@H](CC(N)=O)C(=O)NCC(=O)N[C@@H](CO)C(=O)N[C@@H](CC(N)=O)C(=O)N[C@@H](CCSC)C(=O)N[C@@H](CC(C)C)C(=O)N[C@H](C(=O)N[C@@H](CC(C)C)C(=O)N[C@@H](CC(N)=O)C(=O)N1CCC[C@H]1C(=O)N[C@H](C(=O)N[C@@H](CCC(N)=O)C(=O)N[C@@H](CO)C(=O)N[C@@H](CC(=O)O)C(=O)N[C@@H](CO)C(=O)NCC(=O)N[C@H](C(=O)N[C@@H](Cc1ccc(O)cc1)C(=O)N[C@H](C(=O)O)[C@@H](C)CC)[C@@H](C)CC)[C@@H](C)O)[C@@H](C)CC [Peptide 338]	980 ± 170 nM
CC[C@H](C)[C@H](NC(=O)[C@H](CCSC)NC(=O)[C@H](Cc1ccc(O)cc1)NC(=O)[C@H](Cc1ccccc1)NC(=O)[C@H](CCC(N)=O)NC(=O)[C@@H](NC(=O)CNC(=O)[C@@H](NC(=O)CN)[C@@H](C)O)C(C)C)C(=O)N[C@H](C(=O)N[C@H](C(=O)NCC(=O)N[C@H](C(=O)N[C@H](C(=O)N[C@H](C(=O)N[C@@H](CC(C)C)C(=O)N[C@@H](C)C(=O)N[C@@H](C)C(=O)N[C@@H](CC(C)C)C(=O)N[C@@H](Cc1ccccc1)C(=O)N[C@@H](CCSC)C(=O)O)[C@@H](C)CC)[C@@H](C)CC)C(C)C)[C@@H](C)CC)C(C)C [Peptide 312]	620 ± 110 nM
